Ends that are not written are not given here.
T1: Angiotensin Converting Enzyme (ACE) from rabbit lung (Oryctolagus cuniculus, UniProt P12822)
T1 construct: Angiotensin Converting Enzyme (ACE) from rabbit lung; purchased Sigma-Aldrich (St. Louis, MO, USA); host or cells: rabbit lung (tissue-derived)
T1 sequence (P12822 34-1310): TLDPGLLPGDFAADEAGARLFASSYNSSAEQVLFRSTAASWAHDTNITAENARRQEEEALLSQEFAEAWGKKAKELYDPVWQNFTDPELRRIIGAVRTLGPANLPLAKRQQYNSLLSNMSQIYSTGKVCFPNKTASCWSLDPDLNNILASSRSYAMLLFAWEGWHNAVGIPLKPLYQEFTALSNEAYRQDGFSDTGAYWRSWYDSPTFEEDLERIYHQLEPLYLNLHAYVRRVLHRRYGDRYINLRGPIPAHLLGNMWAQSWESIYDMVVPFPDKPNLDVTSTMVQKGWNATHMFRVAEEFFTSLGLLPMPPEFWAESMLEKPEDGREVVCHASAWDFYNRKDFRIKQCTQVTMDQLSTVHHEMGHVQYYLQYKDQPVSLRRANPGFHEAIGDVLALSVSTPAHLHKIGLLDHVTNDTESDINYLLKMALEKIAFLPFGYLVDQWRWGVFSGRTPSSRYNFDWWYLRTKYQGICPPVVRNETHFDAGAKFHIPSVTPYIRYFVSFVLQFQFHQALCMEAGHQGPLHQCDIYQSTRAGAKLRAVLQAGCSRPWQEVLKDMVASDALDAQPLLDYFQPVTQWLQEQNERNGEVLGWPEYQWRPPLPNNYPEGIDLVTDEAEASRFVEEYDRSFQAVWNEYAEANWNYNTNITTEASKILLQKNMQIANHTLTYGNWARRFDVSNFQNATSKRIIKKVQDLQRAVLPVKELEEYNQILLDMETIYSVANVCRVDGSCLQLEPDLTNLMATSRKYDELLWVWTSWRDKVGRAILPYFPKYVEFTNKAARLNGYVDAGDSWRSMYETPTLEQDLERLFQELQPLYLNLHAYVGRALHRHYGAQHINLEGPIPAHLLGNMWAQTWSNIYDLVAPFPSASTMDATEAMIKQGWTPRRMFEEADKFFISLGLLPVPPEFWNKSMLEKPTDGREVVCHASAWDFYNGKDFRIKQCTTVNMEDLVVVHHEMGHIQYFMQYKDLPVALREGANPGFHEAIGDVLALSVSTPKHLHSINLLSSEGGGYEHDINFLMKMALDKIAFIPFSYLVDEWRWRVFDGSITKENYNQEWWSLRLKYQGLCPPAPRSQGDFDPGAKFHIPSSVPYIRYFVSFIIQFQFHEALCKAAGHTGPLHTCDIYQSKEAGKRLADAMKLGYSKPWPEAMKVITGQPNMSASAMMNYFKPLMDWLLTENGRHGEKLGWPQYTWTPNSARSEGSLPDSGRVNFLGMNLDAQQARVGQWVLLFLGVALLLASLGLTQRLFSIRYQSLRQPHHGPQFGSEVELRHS

T2: Angiotensin Converting Enzyme (ACE) from rabbit lung (rabbit) (UniProt P12822)
T2 sequence: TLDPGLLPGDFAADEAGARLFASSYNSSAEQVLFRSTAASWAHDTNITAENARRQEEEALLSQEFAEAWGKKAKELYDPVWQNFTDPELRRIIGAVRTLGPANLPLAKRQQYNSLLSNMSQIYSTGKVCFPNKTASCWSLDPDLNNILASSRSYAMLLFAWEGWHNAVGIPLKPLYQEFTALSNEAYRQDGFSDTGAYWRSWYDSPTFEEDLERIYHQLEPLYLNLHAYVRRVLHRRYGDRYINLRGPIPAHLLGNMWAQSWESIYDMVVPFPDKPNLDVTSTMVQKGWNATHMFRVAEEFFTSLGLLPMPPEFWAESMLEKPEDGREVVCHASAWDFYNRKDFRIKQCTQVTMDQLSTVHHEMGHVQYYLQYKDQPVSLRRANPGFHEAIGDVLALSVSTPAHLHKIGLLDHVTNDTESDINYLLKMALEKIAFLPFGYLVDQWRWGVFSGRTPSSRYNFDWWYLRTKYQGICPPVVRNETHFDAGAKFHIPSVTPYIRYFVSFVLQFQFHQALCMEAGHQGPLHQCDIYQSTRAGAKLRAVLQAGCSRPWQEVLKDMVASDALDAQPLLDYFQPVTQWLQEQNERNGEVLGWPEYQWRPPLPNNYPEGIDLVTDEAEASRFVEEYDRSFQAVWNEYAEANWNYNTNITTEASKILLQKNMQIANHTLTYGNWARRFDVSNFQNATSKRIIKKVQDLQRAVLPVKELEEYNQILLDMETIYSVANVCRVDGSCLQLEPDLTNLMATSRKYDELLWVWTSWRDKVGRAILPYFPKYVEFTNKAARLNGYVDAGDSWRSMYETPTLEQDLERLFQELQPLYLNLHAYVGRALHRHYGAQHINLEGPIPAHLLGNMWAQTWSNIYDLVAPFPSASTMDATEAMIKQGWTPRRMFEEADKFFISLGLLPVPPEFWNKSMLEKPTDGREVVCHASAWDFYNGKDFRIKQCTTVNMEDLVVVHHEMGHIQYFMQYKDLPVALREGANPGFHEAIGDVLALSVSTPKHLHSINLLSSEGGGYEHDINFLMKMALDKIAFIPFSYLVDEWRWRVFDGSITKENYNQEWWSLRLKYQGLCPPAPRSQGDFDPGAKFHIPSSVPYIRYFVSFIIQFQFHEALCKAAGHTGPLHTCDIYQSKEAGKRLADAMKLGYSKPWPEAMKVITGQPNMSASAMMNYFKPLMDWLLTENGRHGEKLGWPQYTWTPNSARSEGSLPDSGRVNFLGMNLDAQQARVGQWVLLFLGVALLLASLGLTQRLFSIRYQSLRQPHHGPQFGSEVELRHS


Tests used:
[1] = molecular target: T1, Angiotensin Converting Enzyme (ACE) from rabbit lung; test: ACE inhibitory activity assay (HHL substrate, OPA fluorescence); format: biochemical; conditions: chemically synthesized peptides identified from peak 4; mean ± SD, n = 3; read-out: IC50 Value inhibiting ACE activity
Source text: White sesame (Sesamum indicum L.) seeds were purchased from China Oil and Foodstuffs Corporation (Beijing, China). […] Pepsin (3000-3500 NFU/g), trypsin (250.N.F.U/mg), and α-chymotrypsin (1200 u/mg) were obtained from Solarbio Science and Technology Co., Ltd. (Beijing, China). Nanofiltration and ultrafiltration membranes were purchased from Rising Sun Membrane Technology Co., Ltd. (Beijing, China). All other reagents used in this study were of analytical grade. The ACE inhibitory activity was measured by using cary eclipse fluorescence spectrophotometer (Agilent Technologies Australia Pty Ltd., Mulgrave, Australia) according to a modified method of Li et al.. The sample was dissolved by distilled water to the appropriate concentration and the 96-well plate was used as the reaction vessel. Briefly, 30 μL of HHL substrate containing 0.3 mol/L NaCl in 50 mM borate buffer (pH 8.3) and 15 μL of samples were mixed. […] The reaction was stopped by using 125 μL of 1.2 mol/L NaOH. Finally, 30 μL of methanol solution containing 2% OPA was added, mixed evenly, and then stood at room temperature for 20 min. The derivative reaction was terminated by adding 40 μL of 6 mol/L HCl. The reaction solution was diluted 10 times and added into the fluorescence cell. The fluorescence absorption intensity was measured within 30–90 min. […] All assays were performed in triplicate. ACE inhibitory activity was calculated by using the following equation:ACE inhibitory activity (%) = [1 − (a−c)/(b−d)] × 100(2) where a is the fluorescence absorption intensity in the presence of both ACE and inhibitor, b is the fluorescence absorption intensity in the presence of ACE but not inhibitor, c is the fluorescence absorption intensity in the presence of inhibitor but not ACE, d is the fluorescence absorption intensity in the absence of both ACE and inhibitor.

[2] = system: ACE; design: method as in doi:10.1007/s10989-015-9471-y; conditions: peptide from sesame protein hydrolyzed by alcalase, ref [20], cited from earlier work
[3] = molecular target: T2, Angiotensin Converting Enzyme (ACE) from rabbit lung (rabbit)

| IC50 [1] | IC50 of ACE inhibitory activity (enzyme activity on HHL substrate, OPA fluorescence, 37 °C, pH 8.3) [3] | Molecule | also measured |
| --- | --- | --- | --- |
| 54.79 ± 0.37 µM |  | MPGVPGPIQR |  |
| 19 ± 0.26 µM |  | PNYHPSPR |  |
|  | 68.5 μM | AGALGDSVTVTR |  |
|  | 19 μM | PNYHPSPR |  |
|  | 54.8 μM | MPGVPGPIQR |  |
|  | 29 μM | AFPAGAAHW |  |
|  | 11.1 μM | FMPGVPGPIQR |  |

Further lines, the molecule ahead of its results:

| Molecule | IC50 [1] | IC50 of ACE inhibitory activity (enzyme activity on HHL substrate, OPA fluorescence, 37 °C, pH 8.3) [3] | also measured |
| --- | --- | --- | --- |
| AFPAGAAHW | 29 ± 0.2 µM |  |  |
| AGALGDSVTVTR | 68.49 ± 0.14 µM |  |  |
| FMPGVPGPIQR | 11.1 ± 0.15 µM |  |  |
| GHIITVAR | 3.6 ± 0.1 µM |  |  |
| HIGNILSL | 36.69 ± 0.33 µM |  |  |
| HIITLGR [HIITLGR] | 74.65 ± 0.13 µM |  |  |
| INTLSGR [INTLSGR] | 149.6 ± 0.33 µM |  |  |
| LAGNPAGR | 148.4 ± 0.35 µM |  |  |
| YAHYSYA |  |  | IC50 value, ACE inhibition [2]: 600 µg/mL; IC50 ([2]; read-out: IC50 value, ACE inhibition): 687 µM |
| GHIITVAR |  | 3.6 μM |  |
| HIGNILSL |  | 36.7 μM |  |
| INTLSGR |  | 150 μM |  |
| LAGNPAGR |  | 148 μM |  |
| HIITLGR |  | 74.7 μM |  |
